Laboratory results taken from patent publication US8222242B2, “Nitric oxide releasing compounds” (The Regents of the University of California, priority 2008, dated 2012).

Key:
rabbits [1] = assay: Tissue hemoglobin and cytochrome c oxidase in rabbit muscle and brain (DOS, continuous wave near-infrared spectroscopy); format: in vivo
Protocol: NO-Cbi at a dose of 5 μg/kg/min (4.8 nmol/kg/min) was given to a 4 kg rabbit starting at 2 minutes and ending at 11.5 minutes; the drug's effect was monitored by diffuse optical spectroscopy (DOS) over the left thigh muscle. […] All of these changes reversed within 1 minute of stopping the NO-Cbi with a small overshoot in both the oxy- and deoxyhemoglobin concentrations.
NO-Cbi was given to a 3.9 kg rabbit at doses of 6.87, 3.44, and 1.72 μg/kg/min (6.6, 3.3, 1.7 nmol/kg/min), as indicated in the brown rectangular boxes corresponding to drug infusion rates of 1.8, 0.9, and 0.45 ml/min, respectively. Infusion times were for 10 minutes, followed by a 20 minute wash-out period. Oxy-, deoxy- and total hemoglobin concentrations were monitored in the brain by continuous wave near-infrared spectroscopy; changes in hemoglobin concentration are shown as relative units, because continuous wave spectroscopy is not quantitative due to light loss from scattering. As occurred in peripheral muscle (FIG. 7), NO-Cbi caused the deoxyhemoglobin concentration to increase and the oxyhemoglobin concentration to decrease. […] The gradual decrease in total hemoglobin over time was from blood sampling for blood gases and blood hemoglobin content. A dose response effect of NO-Cbi on all three hemoglobin concentration changes can be seen.
(§1) Continuous intravenous NO-Cbi infusions were performed in anesthetized rabbits with systemic hemodynamic monitoring, continuous gas exchange analysis, and diffuse optical spectroscopy (DOS) and continuous wave near-infrared spectroscopy monitoring. DOS monitoring was over muscle as a representation of peripheral tissue, and continuous wave spectroscopy was over muscle and brain region. Six animals have been studied to date, varying NO-Cbi infusion rates in each animal between 1.7 and 6.9 μg/kg/min (1.6 and 6.7 nmol/kg/min).

[2] = test system: vasodilator-stimulated phosphoprotein (VASP) phosphorylated on Ser239 in CS-54 rat vascular smooth muscle cells; assay: VASP phosphorylation in CS-54 cells (immunoblot); format: cell-based
Protocol: CS-54 rat vascular smooth muscle cells were treated with the indicated concentrations of NO-Cbi for 1 hour (A), or 10 μM NO-Cbi for the indicated times (B and C). […] In A and B, “Con” refers to control, which was cells treated with water. As indicated, the effects of 30 μM cobinamide (Cbi) and 100 μM 8-CPT-cGMP (cGMP) are shown for comparison. In A and B, similar results were obtained in two other experiments.
Briefly, cells treated with an NO-releasing agent were extracted rapidly in a sodium dodecyl sulfate (SDS) containing sample buffer, and the cell extracts were subjected to SDS-polyacrylamide gel electrophoresis. Phospho-VASP was assessed by immunoblotting using an antibody specific for VASP phosphorylated on Ser259 (Smolenski A et al. (1998) J. Biol. Chem. 273:20029-35).
To determine if NO released from NO-Cbi can have a physiologic effect in cultured cells, vasodilator-stimulated phosphoprotein (VASP) phosphorylation was assessed in CS-54 cells.

isolated mouse hearts = assay: Coronary flow in isolated perfused mouse hearts (Langendorff)
Protocol: Hearts and aortas were removed from NIH Swiss mice anesthetized with sodium nembutal, and coronary flow was measured in the hearts using a Langendorff preparation (FIG. 5a) and relaxation of aortic rings was measured after inducing constriction of the rings with prostaglandin F2α (FIG. 5b). The hearts and aortic rings were treated with a range of concentrations of NO-Cbi (filled circles), nitroglycerin (open circles, dotted line, FIG. 5a), and sodium nitroprusside (open circles, FIG. 5b). Coronary flow was measured on the same hearts for both NO-Cbi and nitroglycerin after an appropriate wash-out period between drugs, and aortic ring relaxation was measured on two rings from the same aorta for NO-Cbi and sodium nitroprusside. The data are the mean of two independent experiments performed on two separate hearts in each experiment (FIG. 5a), and the mean±SEM of two independent experiments performed on three separate aortic rings in each experiment (FIG. 5b).
Coronary flow was measured in isolated perfused mouse hearts in a Langendorff system, and was 10.8±0.5 ml/min/g wet weight (n=7 hearts) under basal conditions. […] The latter value is similar to maximal coronary flow of 24.6±1.8 ml/min/g wet weight obtained with 62 μM adenosine. For nitroglycerin to increase coronary flow to that of NO-Cbi, the nitroglycerin concentration had to be increased to 770 μM, or about 100-fold greater than the NO-Cbi concentration (FIG. 5a).

rabbits [3] = assay: Continuous intravenous infusion in anesthetized rabbits: systemic hemodynamics and gas exchange; format: in vivo, rabbit
Protocol: NO-Cbi was given by intravenous infusion at a dose of 5 μg/kg/min (4.8 nmol/kg/min) to a 3.5 kg rabbit. […] The infusion was stopped at 10 minutes, but, because of drawing blood through the arterial line for blood gas analysis, the first measurement of blood pressure occurred 6 minutes later. Full recovery required 12 minutes, but it is possible that the initial rate of recovery was faster than shown in the graph. A small overshoot occurred in both systolic and diastolic blood pressure, before returning to pre-treatment levels.
as §1
The blood pressure of rabbits is similar to that of humans, but because of anesthesia, initial blood pressures in the rabbits were on average ˜80/60 mm Hg (FIG. 6). […] Blood pressure returned to baseline within 12 minutes of stopping the infusion, and starting and stopping the infusion repeatedly yielded similar results.

D. melanogaster = assay: Viability of injected D. melanogaster; details: 1 μl injected; 1 mM (ascorbic acid 5 mM); observed 48 h
Protocol: (A) Tubular secretion rates of Malpighian tubules isolated from D. melanogaster were measured, using half-strength Schneider's medium. Basal tubular secretion was measured at 0, 10, and 20 minutes; at 20 minutes (depicted by the arrow) 1 mM cobinamide (Cbi, open circles), 1 mM NO-Cbi (filled circles), 0.5 mM Deta-NONOate (diamonds), or 100 μM 8-CPT-cGMP (inverted triangles) were added. Results are the mean±S.D. of three independent experiments performed on Malpighian tubule pairs from 10 flies. […] (B). Flies were injected with 1 μl of 1 mM cobinamide (Cbi, open circles), 1 mM NO-Cbi (filled circles), 0.5 mM Deta-NONOate (diamonds), or 1 mM spermine NONOate (squares). […] The data are plotted as a Kaplan-Meier survival curve, and are the mean±SD of three experiments, with 10 flies per condition per experiment. […] (C). Flies were injected with 1 μl of water (control, open bar), 1 mM cobinamide (Cbi, grey bar), or 1 mM NO-Cbi (black bars). Flies were killed and extracts were prepared at 3 hours for the water- and cobinamide-injected flies, and at the indicated times for the NO-Cbi-injected flies. Nitrite and nitrate in the extracts were measured using an enhanced Griess reagent.
The fluid volume of a fly is […], and thus, the injected agent was diluted about 10-fold. […]

[4] = incubated with excess heme; cited from earlier work
[5] = continuous gas exchange monitoring

CC1=C2[N+]3=C(C=C4[N+]5=C(C(C)=C6[N]7C(C(CC(N)=O)C6(C)CCC(=O)NCC(C)O)C6(C)[N+](=C1C(CCC(N)=O)C6(C)CC(N)=O)[Co-3]753[N]=O)C(CCC(N)=O)C4(C)C)C(CCC(N)=O)C2(C)CC(N)=O (stereo not drawn) [NO-Cbi, nitrosyl cobinamide]
time for changes to reverse after stopping NO-Cbi (rabbits [1]; 5 μg/kg/min, thigh muscle, DOS): ≤ 1 min | total tissue hemoglobin (rabbits [1]; brain): increased slightly in brain | deoxyhemoglobin concentrations (rabbits [1]; brain and muscle): increased deoxyhemoglobin concentrations | hemoglobin oxygen saturation (rabbits [1]; brain and muscle): decrease in hemoglobin oxygen saturation | tissue oxyhemoglobin concentrations (rabbits [1]; brain and muscle): decreased tissue oxyhemoglobin concentrations | cytochrome redox state (rabbits [1]; muscle): decreasing the cytochrome redox state | total tissue hemoglobin (rabbits [1]; muscle): decreased slightly in muscle | course of VASP phosphorylation after the maximum ([2]; 10 μM NO-Cbi): declined over the ensuing 4 hours | time at which effect on VASP phosphorylation could be observed ([2]; 10 μM NO-Cbi): 15 min | time of maximal effect on VASP phosphorylation ([2]; 10 μM NO-Cbi): 30 to 60 min | VASP phosphorylation ([2]; 1 to 30 μM, 1 hour, CS-54 cells): induced VASP phosphorylation | low concentration that significantly increased coronary flow (isolated mouse hearts): 20 nM | coronary flow (isolated mouse hearts; 7 μM infused): 22.8±1.2 ml/min/g wet weight | increase of coronary flow (isolated mouse hearts; 7 μM infused): more than two-fold | time to new steady-state of blood pressure (rabbits [3]; 5 μg/kg/min intravenous infusion): 5 min | time until systolic and diastolic blood pressures began to decrease (rabbits [3]; 5 μg/kg/min intravenous infusion, 3.5 kg rabbit): ≤ 15 s | time required for full recovery of blood pressure (rabbits [3]; 5 μg/kg/min, infusion stopped at 10 minutes): 12 min | arterial-venous oxygen differences (rabbits [3]; [5]): increased arterial-venous oxygen differences | end tidal CO2 (rabbits [3]; [5]): decreased end tidal CO2 | effects on blood pressure compared with nitroprusside (rabbits [3]; equimolar amounts): more rapid and pronounced than those with equimolar amounts of nitroprusside | cardiac output (direct Fick method) (rabbits [3]; intravenous infusion): decreased | heart rate (rabbits [3]; intravenous infusion): did not change significantly | time for blood pressure to return to baseline after stopping the infusion (rabbits [3]; intravenous infusion): ≤ 12 min | blood pressure (rabbits [3]; intravenous infusion 1.7 to 6.9 μg/kg/min): marked infusion-rate-dependent decrease in blood pressure | physiological half-life of NO-Cbi (rabbits [3]; suggested by return of blood pressure): 5-6 minutes | fly killing / toxicity to flies (D. melanogaster): killed the flies as effectively as 1 mM spermine NONOate | half-life [4]: short
